The source of these data is paper PMC4747383, “Design of a peptidic inhibitor that targets the dimer interface of a prototypic galectin” (Oncotarget, 2015).

Test [1] concerns T cell. Also on record: method as in PMID 25277199, PMID 24134186. The note with it: ref [38], [50]; cited from earlier work.
The test system of test [2] is recombinant hGal-7. Nature of the test: Disruption of hGal-7 homodimers, native gel electrophoresis/Western blot. It is filed as biochemical, human. Conditions: for disruption of hGal-7 homodimers by biotinylated peptide: 0.5 μM hGal-7, 20 mM potassium phosphate pH 7.1, 60 min at 4°C, low SDS-PAGE Western blot, representative of two independent experiments. The text has this: To measure the ability of the peptides to disrupt the formation of hGal-7 dimers, we used mild denaturing native gel electrophoresis, a commonly used approach to visualize monomer-dimer equilibrium (Fig. 1A and Supplementary Fig. S1). […] This specificity at disrupting hGal-7 dimer formation is provided by distinct three-dimensional arrangements between otherwise very similar galectin homologues. Indeed, while all monomeric galectins reveal identical topologies, dimer formation in hGal-7 proceeds through a “back-to-back” topology of the monomers while other galectins, including hGal-1 and hGal-2, adopt a “side-by-side” structural arrangement (Fig. 1B). This structural organization provides additional means to specifically target and disrupt galectin function.
Incubation of the recombinant B. hGal-1 and C. hGal-2 with hGal-7(129–135) was performed in the same potassium phosphate buffer. The effect of hGal-7(129–135) on the monomeric and dimeric forms of hGal-7/hGal-1/hGal-2 was assessed by Western blotting in native conditions with respective antibodies. The hGal-1/hGal-2 films were overexposed. PACAP28–38 was the control peptide used in order to ensure the specificity of hGal-7(129–135). Recombinant hGal-7 (0.5 μM) was also incubated with increasing concentrations of hGal-7(129–135) in 0.1 mM D. lactose or E. LacNac solutions. Results are representative of three independent experiments.
Human Gal-7 cDNA was cloned into pET-22b(+) using NdeI and HindIII restriction enzymes. Human pET-Gal-1 vector was generously donated by Dr. S. Sato (McGill University, QC, Canada). The proteins were produced in E. coli BL21 (DE3) cells at 37°C. Isopropyl β-D-1-thiogalactopyranoside (IPTG) (1 mM) was added to the bacterial culture at OD600nm = 0.6–0.7 and then incubated for 4 h at 37°C to allow protein production. Bacterial pellets were resuspended in lysis buffer (0.7 mg/mL lysozyme, 10 mM Tris pH 8, 100 mM NaCl, 1 mM EDTA, 1 mM DTT and a protease inhibitor cocktail) and then incubated for 1 h at 37°C prior to centrifugation for 30 min at 15,000 × g (4°C). The supernatant was then filtered with 500 mL bottle top filter ([…]) (Corning, New York, NY, USA) and then ran through a lactose-agarose column (Sigma, St. Louis, MO, USA). The protein was eluted in 1 mL fractions with 150 mM lactose solution. Purified fractions were analyzed by SDS-PAGE. The hGal-7 was then concentrated and purified using Centrifugal filter units (Amicon Ultra-15, 10K) (EMD, Millipore, Etobicoke, ON) in 20 mM potassium phosphate at pH 7.1. All subsequent experiments with the recombinant proteins were performed in the same buffer solution unless mentioned otherwise. Brilliant Coomassie blue was purchased from BioRad (Bio-Rad Laboratories, Mississauga, ON, Canada). The recombinant protein hGal-2 was purchased from MyBiosource (San Diego, CA, USA). […]
gaI-7 (0.5 μM) was incubated with increasing concentrations of biotin-labeled hGaI-7129–135 in 20 mM potassium phosphate buffer (pH 7.1) for 60 min at 4°C beforeWestern blot analysis in low SDS-PAGE using an anti-gaI-7 antibody. B. Similar experiments were carried out using recombinant human B. gaI-1 and C. gaI-2. Results are representative of two independent experiments.
(also on this page, place not known: www.impactjournals.com/oncotarget/ Oncotarget, Materials 2015 Supplementary hGaI-7 129–135.)
For orientation: In western blotting, separated proteins are transferred to a membrane and probed.

The test system of test [3] is recombinant hGal-1. Conditions: hGal-1 10 μg/ml coated; unlabeled peptide (1 mM) 60 min, then biotin-labeled peptide 120 min, room temperature; Streptavidin R-phycoerythrin fluorescence; three independent experiments.
In test [4] the test system is recombinant hGal-7. Nature of the test: Solid phase fluorescent binding assay on hGal-7. The note with it: hGal-7 10 μg/ml coated, unlabeled peptide (1 mM) 60 min, then biotin-labeled peptide 120 min, room temperature, Streptavidin R-phycoerythrin fluorescence, three independent experiments. Also on record: species or system human. The text has this: Results are representative of three independent experiments. Error bars represent standard deviation.

Test [5] concerns hGal-2. Nature of the test: Binding to hGal-2. Also on record: species or system human. Conditions: biotinylated peptide; Supplementary Fig. S2 quoted.

Gal-7: human galectin-7: in test [1], the “effects on T cell functions and survival” value was “strong cytotoxic and inhibitory effects on T cell functions and survival”.

For the substance “H-IRPGTVLRIRGLV-NH2 [hGal-7(13–25), peptide corresponding to hGal-7 segment between residues 13–25]”, the “disruption of hGal-7 homodimers (in words)” value in test [2] (0.5 μM recombinant hGal-7, 20 mM potassium phosphate pH 7.1, 1 h at 4°C, native PAGE, Western blot) is recorded as “less potent than hGal-7(129–135) to disrupt hGal-7 homodimers”.

Regarding “biotinylated hGal-7(129–135): biotinylated version of hGal-7(129–135), Biotin-NHS coupled via Ahx linker”, the “disruption of hGal-7 homodimers by biotinylated peptide” value in test [2] is “still capable of specifically inhibiting the formation of hGal-7 homodimers”; in test [2] (listed as biotin-labeled hGaI-7129–135), “Disruption of hGaI-7 dimer”. Further, in test [3], the “binding to immobilized hGal-1” value is on record as “not hGal-1 or hGal-2”. The entries for the “binding to immobilized hGal-7” value in test [4] and in test [4] (listed as biotin-labeled hGal-7(129–135)) were “could bind hGal-7” and “dose-dependent interaction”, respectively. In addition, in test [5], the “binding to hGal-2” value is listed as “not hGal-1 or hGal-2”.
